The structures appear in SMILES notation.

In data set [1] the test system is MV4-11. Briefly: Antiproliferative activity against human MV4-11 cells assessed as inhibition of cell growth incubated for 10 days and replacement with fresh media with compounds on day 5 by CTG assay. The data set is classed as functional, cell-based.
A short description of data set [2]: Volume of distribution in CD-1 mouse at 5 mg/kg, po or 1 mg/kg, iv administered as single dose and measured for 24 hrs by LC-MS/MS analysis. In kind it is ADME, organism-based. The settings on record: in vivo.
A short description of data set [3]: Metabolic stability in mouse liver microsomes assessed as intrinsic clearance at 1 uM preincubated for 10 mins followed by NADPH addition and measured for 60 mins by LC-MS/MS analysis. The data set is classed as ADME, Microsome. The settings on record: read-out: CLH. For orientation: Microsomes from liver hold many membrane-bound enzymes, among them those of drug oxidation.

The subject of data set [4] is MC-38. Briefly: Antitumor activity against mouse MC-38 cells implanted in C57BL/6J syngeneic mouse model assessed as tumor growth inhibition at 3 mg/kg, po administered via gavage once daily for 21 days in presence of mPDL1 antibody administered twice per week and measured 3 times a week by caliper method relative to control. In kind it is functional. The settings on record: MC-38, 504 h, time 21 day, read-out: TGI.

In data set [5] the target is Glycogen synthase kinase-3 alpha (Homo sapiens, UniProt P49840). Briefly: Binding affinity to GSK3A (unknown origin) assessed as dissociation constant by competitive binding assay.
For data set [6], the target named is T1, Cytochrome P450 1A2 (Homo sapiens, UniProt P05177).
T1 sequence (P05177 whole entry): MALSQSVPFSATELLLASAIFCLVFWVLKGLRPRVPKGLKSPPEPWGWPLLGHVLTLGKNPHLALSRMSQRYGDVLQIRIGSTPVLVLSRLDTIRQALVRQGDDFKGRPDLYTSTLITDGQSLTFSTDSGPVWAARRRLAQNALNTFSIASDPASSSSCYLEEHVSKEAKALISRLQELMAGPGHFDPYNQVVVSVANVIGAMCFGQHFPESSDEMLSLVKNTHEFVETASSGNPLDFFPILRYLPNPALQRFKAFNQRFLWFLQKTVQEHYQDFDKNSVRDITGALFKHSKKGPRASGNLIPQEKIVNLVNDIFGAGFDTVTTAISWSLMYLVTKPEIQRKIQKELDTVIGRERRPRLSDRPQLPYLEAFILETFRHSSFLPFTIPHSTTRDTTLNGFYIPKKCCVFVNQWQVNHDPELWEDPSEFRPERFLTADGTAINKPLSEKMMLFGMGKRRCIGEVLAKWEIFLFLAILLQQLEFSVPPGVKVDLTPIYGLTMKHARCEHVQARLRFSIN
Briefly: Inhibition of CYP1A2 in human liver microsomes using phenacetin as substrate assessed as reduction in substrate O-deethylation incubated for 10 mins in presence of NADPH by LC-MS/MS analysis. In kind it is ADME, Microsome.

Data set [7] deals with Cytochrome P450 3A4 (Homo sapiens, UniProt P08684). Briefly: Inhibition of CYP3A4 in human liver microsomes using midazolam as substrate assessed as reduction in substrate hydroxylation incubated for 10 mins in presence of NADPH by LC-MS/MS analysis. In kind it is ADME, Microsome.
Data set [8] has as its system Mus musculus. Briefly: In vivo inhibition of STAT1 phosphorylation at S727 residue in BALB/c nude mouse xenografted with human MV4-11 cells assessed as reduction in p-STAT1 protein level administered orally by gavage twice per day for 17 days and measured 24 hrs post last dose by Western blot analysis. In kind it is functional, organism-based. The settings on record: dose 1-10 mg/kg, route po, time 17.0 day. A general note: Xenograft models place foreign cells or tissue in a host animal.

Data set [9] has as its target Phosphatidylinositol 3-kinase catalytic subunit type 3 (Homo sapiens, UniProt Q8NEB9). Briefly: Binding affinity to VPS34 (unknown origin) assessed as dissociation constant by competitive binding assay.
The nature of data set [10]: Metabolic stability in human liver microsomes assessed as intrinsic clearance at 1 uM preincubated for 10 mins followed by NADPH addition and measured for 60 mins by LC-MS/MS analysis. In kind it is ADME, Microsome. The following applies: read-out: CLH.
Data set [11] relates to MV4-11. Briefly: Antitumor activity against human MV4-11 cells xenografted in BALB/c nude mouse assessed as inhibition of tumor growth administered orally by gavage twice per day for 17 days and measured 3 times per week by caliper method. The data set is classed as functional, cell-based. The settings on record: dose 1-10 mg/kg, route po, time 17.0 day.
In data set [12] the target is T2, Serine/threonine-protein kinase LATS2 (Homo sapiens, UniProt Q9NRM7).
T2 sequence (Q9NRM7 whole entry): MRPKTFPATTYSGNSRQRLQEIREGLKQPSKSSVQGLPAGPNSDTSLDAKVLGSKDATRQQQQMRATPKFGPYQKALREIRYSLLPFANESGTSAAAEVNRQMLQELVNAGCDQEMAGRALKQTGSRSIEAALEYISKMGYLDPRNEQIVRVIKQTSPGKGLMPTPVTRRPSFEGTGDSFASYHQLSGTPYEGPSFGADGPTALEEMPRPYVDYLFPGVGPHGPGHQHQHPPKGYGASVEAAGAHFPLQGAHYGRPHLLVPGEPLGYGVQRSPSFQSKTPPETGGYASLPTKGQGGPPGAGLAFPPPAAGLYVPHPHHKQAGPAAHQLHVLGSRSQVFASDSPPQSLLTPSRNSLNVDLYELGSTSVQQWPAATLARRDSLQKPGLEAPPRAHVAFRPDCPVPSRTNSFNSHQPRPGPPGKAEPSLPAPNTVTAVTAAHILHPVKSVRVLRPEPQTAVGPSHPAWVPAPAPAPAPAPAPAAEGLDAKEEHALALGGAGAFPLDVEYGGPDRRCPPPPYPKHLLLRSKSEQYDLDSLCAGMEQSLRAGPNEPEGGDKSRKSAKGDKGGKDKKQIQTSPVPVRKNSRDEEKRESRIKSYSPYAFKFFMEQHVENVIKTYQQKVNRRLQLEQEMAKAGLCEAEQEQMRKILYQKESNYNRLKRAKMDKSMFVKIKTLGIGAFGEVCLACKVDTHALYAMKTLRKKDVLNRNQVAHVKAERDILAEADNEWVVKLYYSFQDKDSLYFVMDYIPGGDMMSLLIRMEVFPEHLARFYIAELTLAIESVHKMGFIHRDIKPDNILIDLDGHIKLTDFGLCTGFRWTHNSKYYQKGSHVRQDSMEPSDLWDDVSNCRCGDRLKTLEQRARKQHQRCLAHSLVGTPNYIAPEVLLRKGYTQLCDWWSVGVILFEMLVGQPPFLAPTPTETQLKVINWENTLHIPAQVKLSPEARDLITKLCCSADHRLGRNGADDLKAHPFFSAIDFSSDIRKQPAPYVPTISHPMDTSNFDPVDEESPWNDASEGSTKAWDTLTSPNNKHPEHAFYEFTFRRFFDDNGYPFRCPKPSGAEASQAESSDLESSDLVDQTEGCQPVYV
Briefly: Binding affinity to LATS2 (unknown origin) assessed as dissociation constant by competitive binding assay.

Data set [13] is described as follows: Clearance in CD-1 mouse assessed as liver blood flow at 5 mg/kg, po or 1 mg/kg, iv administered as single dose and measured for 24 hrs by LC-MS/MS analysis. The following applies: in vivo. In kind it is ADME, organism-based.
The target in data set [14] is Voltage-gated inwardly rectifying potassium channel KCNH2 (Homo sapiens, UniProt Q12809). Briefly: Inhibition of hERG expressed in CHO cells at -80 mV holding potential by whole cell patch clamp recording assay. The data set is classed as toxicity, cell-based. (In general: The hERG channel carries a current that helps repolarise heart muscle cells.)
The nature of data set [15]: Half life in Beagle dog at 1 mg/kg, po or 0.5 mg/kg, iv administered as single dose and measured for 24 hrs by LC-MS/MS analysis. In kind it is ADME, organism-based, Canis lupus familiaris. The settings on record: in vivo.
The nature of data set [16]: Bioavailability in Beagle dog at 1 mg/kg, po or 0.5 mg/kg, iv administered as single dose and measured for 24 hrs by LC-MS/MS analysis. In kind it is ADME, organism-based, Canis lupus familiaris. The settings on record: in vivo.

Glycogen synthase kinase-3 alpha, sequence (P49840 whole entry): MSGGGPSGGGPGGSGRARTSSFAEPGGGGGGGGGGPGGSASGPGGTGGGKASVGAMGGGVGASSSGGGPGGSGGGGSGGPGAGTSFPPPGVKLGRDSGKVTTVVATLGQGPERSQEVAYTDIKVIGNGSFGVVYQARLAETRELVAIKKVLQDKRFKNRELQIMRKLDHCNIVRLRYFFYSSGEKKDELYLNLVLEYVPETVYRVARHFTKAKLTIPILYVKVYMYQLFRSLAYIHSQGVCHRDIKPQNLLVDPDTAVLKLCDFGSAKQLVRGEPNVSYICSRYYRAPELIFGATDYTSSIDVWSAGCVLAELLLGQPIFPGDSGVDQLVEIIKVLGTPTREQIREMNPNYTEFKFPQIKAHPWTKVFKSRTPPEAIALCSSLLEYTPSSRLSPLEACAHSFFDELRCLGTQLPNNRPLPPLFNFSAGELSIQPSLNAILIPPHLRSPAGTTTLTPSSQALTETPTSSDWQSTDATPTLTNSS
Phosphatidylinositol 3-kinase catalytic subunit type 3, sequence (Q8NEB9 whole entry): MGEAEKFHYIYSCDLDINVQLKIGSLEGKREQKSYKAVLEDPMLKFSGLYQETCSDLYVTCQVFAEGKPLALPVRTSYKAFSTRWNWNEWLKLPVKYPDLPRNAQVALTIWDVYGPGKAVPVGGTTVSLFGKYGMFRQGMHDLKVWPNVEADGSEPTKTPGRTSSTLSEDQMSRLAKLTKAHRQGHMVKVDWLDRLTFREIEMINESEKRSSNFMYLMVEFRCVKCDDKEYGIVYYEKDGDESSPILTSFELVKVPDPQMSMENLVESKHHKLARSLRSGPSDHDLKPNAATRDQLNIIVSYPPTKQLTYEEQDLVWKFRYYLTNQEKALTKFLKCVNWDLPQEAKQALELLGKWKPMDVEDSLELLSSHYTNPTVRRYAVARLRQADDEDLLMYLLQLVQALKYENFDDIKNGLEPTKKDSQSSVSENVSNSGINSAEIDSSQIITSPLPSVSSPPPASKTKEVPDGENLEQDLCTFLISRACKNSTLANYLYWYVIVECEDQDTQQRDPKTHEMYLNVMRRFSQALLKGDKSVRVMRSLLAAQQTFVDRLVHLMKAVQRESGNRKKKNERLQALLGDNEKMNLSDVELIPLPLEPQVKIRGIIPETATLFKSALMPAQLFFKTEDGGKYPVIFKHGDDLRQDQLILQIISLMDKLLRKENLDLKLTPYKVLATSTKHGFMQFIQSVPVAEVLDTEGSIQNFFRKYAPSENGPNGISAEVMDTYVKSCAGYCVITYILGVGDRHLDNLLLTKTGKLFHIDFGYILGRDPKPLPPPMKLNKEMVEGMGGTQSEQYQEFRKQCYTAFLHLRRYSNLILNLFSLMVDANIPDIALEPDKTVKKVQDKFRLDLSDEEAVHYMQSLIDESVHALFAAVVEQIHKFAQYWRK
Voltage-gated inwardly rectifying potassium channel KCNH2, sequence (Q12809 whole entry): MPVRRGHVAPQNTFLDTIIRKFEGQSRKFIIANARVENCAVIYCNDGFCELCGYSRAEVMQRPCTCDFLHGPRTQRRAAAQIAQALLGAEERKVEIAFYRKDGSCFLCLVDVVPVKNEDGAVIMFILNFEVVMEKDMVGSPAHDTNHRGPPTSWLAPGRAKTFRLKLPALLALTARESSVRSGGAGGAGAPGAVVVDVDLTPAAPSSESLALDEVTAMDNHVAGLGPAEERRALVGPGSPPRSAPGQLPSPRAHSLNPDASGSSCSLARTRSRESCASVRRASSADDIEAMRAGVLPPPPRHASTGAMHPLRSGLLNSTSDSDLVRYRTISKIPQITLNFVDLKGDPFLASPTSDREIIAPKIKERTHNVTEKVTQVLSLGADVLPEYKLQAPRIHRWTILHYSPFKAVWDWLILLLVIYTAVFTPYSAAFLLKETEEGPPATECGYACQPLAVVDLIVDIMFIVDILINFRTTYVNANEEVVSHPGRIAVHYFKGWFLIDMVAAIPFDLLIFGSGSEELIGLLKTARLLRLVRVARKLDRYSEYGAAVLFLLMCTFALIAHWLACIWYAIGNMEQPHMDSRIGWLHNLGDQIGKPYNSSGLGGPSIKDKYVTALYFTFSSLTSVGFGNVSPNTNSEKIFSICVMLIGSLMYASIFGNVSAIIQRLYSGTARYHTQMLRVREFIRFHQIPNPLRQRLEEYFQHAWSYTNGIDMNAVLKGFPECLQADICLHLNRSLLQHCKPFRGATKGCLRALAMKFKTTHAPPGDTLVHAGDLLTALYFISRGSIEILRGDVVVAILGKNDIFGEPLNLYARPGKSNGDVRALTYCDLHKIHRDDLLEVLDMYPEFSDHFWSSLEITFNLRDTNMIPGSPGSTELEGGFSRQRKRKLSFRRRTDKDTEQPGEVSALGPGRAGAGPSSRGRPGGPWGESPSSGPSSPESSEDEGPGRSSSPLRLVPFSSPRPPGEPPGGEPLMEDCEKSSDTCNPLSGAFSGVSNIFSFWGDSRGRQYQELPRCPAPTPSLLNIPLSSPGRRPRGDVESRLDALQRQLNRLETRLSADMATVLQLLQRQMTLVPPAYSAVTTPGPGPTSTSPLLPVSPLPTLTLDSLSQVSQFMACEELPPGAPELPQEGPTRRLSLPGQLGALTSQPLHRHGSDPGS
Cytochrome P450 3A4, sequence (P08684 whole entry): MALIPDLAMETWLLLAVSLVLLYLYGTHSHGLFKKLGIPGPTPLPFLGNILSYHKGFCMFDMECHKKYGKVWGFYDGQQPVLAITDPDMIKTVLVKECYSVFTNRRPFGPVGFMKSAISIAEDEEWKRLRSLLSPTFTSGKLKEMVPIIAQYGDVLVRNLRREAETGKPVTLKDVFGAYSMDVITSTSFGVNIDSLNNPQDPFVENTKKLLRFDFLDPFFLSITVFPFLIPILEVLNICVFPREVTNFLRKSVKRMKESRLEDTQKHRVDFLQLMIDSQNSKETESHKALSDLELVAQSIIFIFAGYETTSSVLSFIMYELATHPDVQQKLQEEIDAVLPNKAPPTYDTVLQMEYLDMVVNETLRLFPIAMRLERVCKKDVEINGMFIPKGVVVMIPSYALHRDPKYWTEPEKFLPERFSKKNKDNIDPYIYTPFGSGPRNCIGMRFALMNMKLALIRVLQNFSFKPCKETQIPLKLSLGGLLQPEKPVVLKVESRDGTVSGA

`Cc1n[nH]c2ccc(-c3nnc(C)n3Cc3ccc(C(F)(F)F)cc3)cc12`: the IC50 in data set [1] is 11.8 nM; in data set [6], over 50 µM; in [7] it was over 50 µM; in data set [14] it was over 30 µM. Besides, the Vd in data set [2] was 0.4 L/kg. Further, the CLint scaled at 1 µM in [3] was 148 mL/min/kg; in data set [10] it was under 8.6 mL/min/kg. The inhibition in vivo at 3 mg/kg in [4] amounted to 80.4%. Also, the Kd turned out to be 240 nM in data set [5], 4.2 µM in data set [9] and 250 nM in [12]. For the same molecule, the inhibition entry in data set [8] and in [11] was “Dose-Dependent Effect” throughout. Further, in [13], the LBF is reported as 1.4%. Moreover, the half-life in data set [15] is 276 min. Moreover, the bioavailability in data set [16] turned out to be 102%.

What is called IC50 is the concentration at which inhibition is half-maximal. The Kd is the concentration at which binding is half-saturated. Usually half-life stands for the time in which the quantity being followed falls by half. A high value points to slow loss.
